Experimental data published in the NIST ThermoML archive (doi:10.1016/j.jct.2005.04.017).

Experiment: mn = molality of the nth substance listed, in mol/kg
Conditions: Liquid, Capillary tube (Ostwald / Ubbelohde) method

O=[N+]([O-])[O-].O=[N+]([O-])[O-].[Ni+2] [nickel(II) nitrate] + O
viscosity [mPa·s]
Conditions | 100 kPa | 10000 kPa | 20000 kPa | 30000 kPa
297.86 K, m1 = 1.824 | 1.671 | 1.672 | 1.672 | 1.673
297.86 K, m1 = 2.246 | 1.973 | 1.973 | 1.974 | 1.974
297.98 K, m1 = 0.608 | 1.078 | 1.077 | 1.077 | 1.078
298.43 K, m1 = 0.218 | 0.9454 | 0.9468 | 0.9471 | 0.9482
298.64 K, m1 = 0.951 | 1.193 | 1.194 | 1.194 | 1.194
298.65 K, m1 = 0.153 | 0.9231 | 0.9246 | 0.9251 | 0.9261
298.65 K, m1 = 0.288 | 0.9601 | 0.9606 | 0.961 | 0.962
299.24 K, m1 = 0.05 | 0.884 | 0.8839 | 0.8843 | 0.8845
299.76 K, m1 = 1.368 | 1.348 | 1.348 | 1.349 | 1.35
309.84 K, m1 = 2.246 | 1.537 | 1.539 | 1.542 | 1.545
321.54 K, m1 = 0.05 | 0.5771 | 0.579 | 0.5797 | 0.582
322.46 K, m1 = 2.246 | 1.225 | 1.231 | 1.236 | 1.241
322.56 K, m1 = 0.153 | 0.5821 | 0.5872 | 0.592 | 0.5938
322.56 K, m1 = 0.288 | 0.6103 | 0.6122 | 0.613 | 0.6145
323.46 K, m1 = 0.608 | 0.6691 | 0.6724 | 0.6754 | 0.6781
323.67 K, m1 = 0.951 | 0.7503 | 0.7533 | 0.7564 | 0.7595
323.74 K, m1 = 0.218 | 0.5854 | 0.5895 | – | –
